Data on 4 compounds can be found in PubChem BioAssay AID2060497 (Molecular Pharmacology Branch, DTP, NCI, 2025).

In general, viability, T/C refers to the ratio of treated to control.
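Also: spheroids exposed to compounds for one week before readout; percent viability relative to DMSO vehicle wells taken as 100%.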

One experiment has as its system 317291-083-R-J1-PDC complex spheroids, viability. The experiment in a line: Anticancer human tumor 317291-083-R-J1-PDC patient-derived soft tissue sarcoma cell line growth inhibition [GQUAD]. Particulars: second compound 3.16 µM; first compound 0.1 µM; stronger effect = lower value. The essentials:
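Tumor cells were grown as complex spheroids with HUVEC endothelial cells and mesenchymal stem cells as stroma. G-quadruplex stabilizers were combined with targeted agents over half-log dilutions from near the clinical Cmax, or from 10 microM.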
Regarding `Nc1ccn(C2OC(CO)C(O)C2(F)F)c(=O)n1` (configuration not stated) + Cc1cnc(CNC(=O)c2c(=O)c3ccc(N4CCCN(C)CC4)nc3n3c2sc2ccccc23)cn1, the viability, T/C is 17.5%.

As to `COc1cc(C2c3cc4c(cc3C(OC3OC5COC(C)OC5C(O)C3O)C3COC(=O)C23)OCO4)cc(OC)c1O` (configuration not stated) + CN(C)c1ccc(Nc2c3ccc(NC(=O)CCN4CCCC4)cc3nc3cc(NC(=O)CCN4CCCC4)ccc23)cc1, the viability, T/C was 12.5%.

The same experiment, now with this note: second compound 3.16 µM; first compound 0.316 µM; stronger effect = lower value.
Turning to `CC1COCCN1c1cc(C2(O)CC3CCC(C2)O3)c2cnn(-c3ccn[nH]3)c2n1` (configuration not stated) + CN(C)c1ccc(Nc2c3ccc(NC(=O)CCN4CCCC4)cc3nc3cc(NC(=O)CCN4CCCC4)ccc23)cc1, the viability, T/C was 6%.

For the compound `COc1cccc2c1C(=O)c1c(O)c3c(c(O)c1C2=O)CC(O)(C(=O)CO)CC3OC1CC(N)C(O)C(C)O1` (configuration not stated) + Cc1cnc(CNC(=O)c2c(=O)c3ccc(N4CCCN(C)CC4)nc3n3c2sc2ccccc23)cn1, the viability, T/C is 11.6%.

As for `Nc1ccn(C2OC(CO)C(O)C2(F)F)c(=O)n1` (configuration not stated) + Cc1cnc(CNC(=O)c2c(=O)c3ccc(N4CCCN(C)CC4)nc3n3c2sc2ccccc23)cn1, the viability, T/C is 9.09%.

`COc1cc(C2c3cc4c(cc3C(OC3OC5COC(C)OC5C(O)C3O)C3COC(=O)C23)OCO4)cc(OC)c1O` (configuration not stated) + CN(C)c1ccc(Nc2c3ccc(NC(=O)CCN4CCCC4)cc3nc3cc(NC(=O)CCN4CCCC4)ccc23)cc1: the viability, T/C was 21.5%.

Staying with this experiment, now noted: second compound 3.16 µM; first compound 1 µM; stronger effect = lower value.
In the case of `CC1COCCN1c1cc(C2(O)CC3CCC(C2)O3)c2cnn(-c3ccn[nH]3)c2n1` (configuration not stated) + CN(C)c1ccc(Nc2c3ccc(NC(=O)CCN4CCCC4)cc3nc3cc(NC(=O)CCN4CCCC4)ccc23)cc1, the viability, T/C is 3.23%.

In the case of `COc1cccc2c1C(=O)c1c(O)c3c(c(O)c1C2=O)CC(O)(C(=O)CO)CC3OC1CC(N)C(O)C(C)O1` (configuration not stated) + Cc1cnc(CNC(=O)c2c(=O)c3ccc(N4CCCN(C)CC4)nc3n3c2sc2ccccc23)cn1, the viability, T/C was 0.53%.

As to `Nc1ccn(C2OC(CO)C(O)C2(F)F)c(=O)n1` (configuration not stated) + Cc1cnc(CNC(=O)c2c(=O)c3ccc(N4CCCN(C)CC4)nc3n3c2sc2ccccc23)cn1, the viability, T/C is 7.43%.

As for `COc1cc(C2c3cc4c(cc3C(OC3OC5COC(C)OC5C(O)C3O)C3COC(=O)C23)OCO4)cc(OC)c1O` (configuration not stated) + CN(C)c1ccc(Nc2c3ccc(NC(=O)CCN4CCCC4)cc3nc3cc(NC(=O)CCN4CCCC4)ccc23)cc1, the viability, T/C was 9.89%.

Still in this experiment, the particulars now being: second compound 3.16 µM; first compound 3.16 µM; stronger effect = lower value.
For the compound `CC1COCCN1c1cc(C2(O)CC3CCC(C2)O3)c2cnn(-c3ccn[nH]3)c2n1` (configuration not stated) + CN(C)c1ccc(Nc2c3ccc(NC(=O)CCN4CCCC4)cc3nc3cc(NC(=O)CCN4CCCC4)ccc23)cc1, the viability, T/C is 4.27%.

On to `COc1cccc2c1C(=O)c1c(O)c3c(c(O)c1C2=O)CC(O)(C(=O)CO)CC3OC1CC(N)C(O)C(C)O1` (configuration not stated) + Cc1cnc(CNC(=O)c2c(=O)c3ccc(N4CCCN(C)CC4)nc3n3c2sc2ccccc23)cn1, for which the viability, T/C is 0.36%.

Turning to `Nc1ccn(C2OC(CO)C(O)C2(F)F)c(=O)n1` (configuration not stated) + Cc1cnc(CNC(=O)c2c(=O)c3ccc(N4CCCN(C)CC4)nc3n3c2sc2ccccc23)cn1, the viability, T/C is 5.04%.

As for `COc1cc(C2c3cc4c(cc3C(OC3OC5COC(C)OC5C(O)C3O)C3COC(=O)C23)OCO4)cc(OC)c1O` (configuration not stated) + CN(C)c1ccc(Nc2c3ccc(NC(=O)CCN4CCCC4)cc3nc3cc(NC(=O)CCN4CCCC4)ccc23)cc1, the viability, T/C was 8.39%.

Staying with this experiment, now noted: second compound 3.16 µM; first compound 10 µM; stronger effect = lower value.
Turning to `CC1COCCN1c1cc(C2(O)CC3CCC(C2)O3)c2cnn(-c3ccn[nH]3)c2n1` (configuration not stated) + CN(C)c1ccc(Nc2c3ccc(NC(=O)CCN4CCCC4)cc3nc3cc(NC(=O)CCN4CCCC4)ccc23)cc1, the viability, T/C was 0.57%.

Consider `COc1cccc2c1C(=O)c1c(O)c3c(c(O)c1C2=O)CC(O)(C(=O)CO)CC3OC1CC(N)C(O)C(C)O1` (configuration not stated) + Cc1cnc(CNC(=O)c2c(=O)c3ccc(N4CCCN(C)CC4)nc3n3c2sc2ccccc23)cn1, for which the viability, T/C is 1.14%.

Consider `Nc1ccn(C2OC(CO)C(O)C2(F)F)c(=O)n1` (configuration not stated) + Cc1cnc(CNC(=O)c2c(=O)c3ccc(N4CCCN(C)CC4)nc3n3c2sc2ccccc23)cn1, for which the viability, T/C is 5.88%.

In the case of `COc1cc(C2c3cc4c(cc3C(OC3OC5COC(C)OC5C(O)C3O)C3COC(=O)C23)OCO4)cc(OC)c1O` (configuration not stated) + CN(C)c1ccc(Nc2c3ccc(NC(=O)CCN4CCCC4)cc3nc3cc(NC(=O)CCN4CCCC4)ccc23)cc1, the viability, T/C was 6.12%.

Still in this experiment, the particulars now being: second compound 10 µM; first compound 0.0316 µM; stronger effect = lower value.
For the compound `CC1COCCN1c1cc(C2(O)CC3CCC(C2)O3)c2cnn(-c3ccn[nH]3)c2n1` (configuration not stated) + CN(C)c1ccc(Nc2c3ccc(NC(=O)CCN4CCCC4)cc3nc3cc(NC(=O)CCN4CCCC4)ccc23)cc1, the viability, T/C is 4.09%.

`COc1cccc2c1C(=O)c1c(O)c3c(c(O)c1C2=O)CC(O)(C(=O)CO)CC3OC1CC(N)C(O)C(C)O1` (configuration not stated) + Cc1cnc(CNC(=O)c2c(=O)c3ccc(N4CCCN(C)CC4)nc3n3c2sc2ccccc23)cn1: the viability, T/C was 16.5%.

For `Nc1ccn(C2OC(CO)C(O)C2(F)F)c(=O)n1` (configuration not stated) + Cc1cnc(CNC(=O)c2c(=O)c3ccc(N4CCCN(C)CC4)nc3n3c2sc2ccccc23)cn1, the viability, T/C was 16.9%.

On to `COc1cc(C2c3cc4c(cc3C(OC3OC5COC(C)OC5C(O)C3O)C3COC(=O)C23)OCO4)cc(OC)c1O` (configuration not stated) + CN(C)c1ccc(Nc2c3ccc(NC(=O)CCN4CCCC4)cc3nc3cc(NC(=O)CCN4CCCC4)ccc23)cc1, for which the viability, T/C is 12.7%.

Still in this experiment, the particulars now being: second compound 10 µM; first compound 0.1 µM; stronger effect = lower value.
Regarding `CC1COCCN1c1cc(C2(O)CC3CCC(C2)O3)c2cnn(-c3ccn[nH]3)c2n1` (configuration not stated) + CN(C)c1ccc(Nc2c3ccc(NC(=O)CCN4CCCC4)cc3nc3cc(NC(=O)CCN4CCCC4)ccc23)cc1, the viability, T/C is 3.93%.

As for `COc1cccc2c1C(=O)c1c(O)c3c(c(O)c1C2=O)CC(O)(C(=O)CO)CC3OC1CC(N)C(O)C(C)O1` (configuration not stated) + Cc1cnc(CNC(=O)c2c(=O)c3ccc(N4CCCN(C)CC4)nc3n3c2sc2ccccc23)cn1, the viability, T/C is 15.6%.

In the case of `Nc1ccn(C2OC(CO)C(O)C2(F)F)c(=O)n1` (configuration not stated) + Cc1cnc(CNC(=O)c2c(=O)c3ccc(N4CCCN(C)CC4)nc3n3c2sc2ccccc23)cn1, the viability, T/C is 24.9%.

Take `COc1cc(C2c3cc4c(cc3C(OC3OC5COC(C)OC5C(O)C3O)C3COC(=O)C23)OCO4)cc(OC)c1O` (configuration not stated) + CN(C)c1ccc(Nc2c3ccc(NC(=O)CCN4CCCC4)cc3nc3cc(NC(=O)CCN4CCCC4)ccc23)cc1: the viability, T/C is 8.34%.

Staying with this experiment, now noted: second compound 10 µM; first compound 0.316 µM; stronger effect = lower value.
For `CC1COCCN1c1cc(C2(O)CC3CCC(C2)O3)c2cnn(-c3ccn[nH]3)c2n1` (configuration not stated) + CN(C)c1ccc(Nc2c3ccc(NC(=O)CCN4CCCC4)cc3nc3cc(NC(=O)CCN4CCCC4)ccc23)cc1, the viability, T/C was 2.46%.

On to `COc1cccc2c1C(=O)c1c(O)c3c(c(O)c1C2=O)CC(O)(C(=O)CO)CC3OC1CC(N)C(O)C(C)O1` (configuration not stated) + Cc1cnc(CNC(=O)c2c(=O)c3ccc(N4CCCN(C)CC4)nc3n3c2sc2ccccc23)cn1, for which the viability, T/C is 20.6%.

`Nc1ccn(C2OC(CO)C(O)C2(F)F)c(=O)n1` (configuration not stated) + Cc1cnc(CNC(=O)c2c(=O)c3ccc(N4CCCN(C)CC4)nc3n3c2sc2ccccc23)cn1: the viability, T/C is 7%.

Regarding `COc1cc(C2c3cc4c(cc3C(OC3OC5COC(C)OC5C(O)C3O)C3COC(=O)C23)OCO4)cc(OC)c1O` (configuration not stated) + CN(C)c1ccc(Nc2c3ccc(NC(=O)CCN4CCCC4)cc3nc3cc(NC(=O)CCN4CCCC4)ccc23)cc1, the viability, T/C is 4.76%.

Staying with this experiment, now noted: second compound 10 µM; first compound 1 µM; stronger effect = lower value.
In the case of `CC1COCCN1c1cc(C2(O)CC3CCC(C2)O3)c2cnn(-c3ccn[nH]3)c2n1` (configuration not stated) + CN(C)c1ccc(Nc2c3ccc(NC(=O)CCN4CCCC4)cc3nc3cc(NC(=O)CCN4CCCC4)ccc23)cc1, the viability, T/C is 2.16%.

Regarding `COc1cccc2c1C(=O)c1c(O)c3c(c(O)c1C2=O)CC(O)(C(=O)CO)CC3OC1CC(N)C(O)C(C)O1` (configuration not stated) + Cc1cnc(CNC(=O)c2c(=O)c3ccc(N4CCCN(C)CC4)nc3n3c2sc2ccccc23)cn1, the viability, T/C was 20.7%.

`Nc1ccn(C2OC(CO)C(O)C2(F)F)c(=O)n1` (configuration not stated) + Cc1cnc(CNC(=O)c2c(=O)c3ccc(N4CCCN(C)CC4)nc3n3c2sc2ccccc23)cn1: the viability, T/C was 8.35%.

With `COc1cc(C2c3cc4c(cc3C(OC3OC5COC(C)OC5C(O)C3O)C3COC(=O)C23)OCO4)cc(OC)c1O` (configuration not stated) + CN(C)c1ccc(Nc2c3ccc(NC(=O)CCN4CCCC4)cc3nc3cc(NC(=O)CCN4CCCC4)ccc23)cc1, the viability, T/C was 7.68%.

The same experiment, now with this note: second compound 10 µM; first compound 3.16 µM; stronger effect = lower value.
As for `CC1COCCN1c1cc(C2(O)CC3CCC(C2)O3)c2cnn(-c3ccn[nH]3)c2n1` (configuration not stated) + CN(C)c1ccc(Nc2c3ccc(NC(=O)CCN4CCCC4)cc3nc3cc(NC(=O)CCN4CCCC4)ccc23)cc1, the viability, T/C was 2.2%.

With `COc1cccc2c1C(=O)c1c(O)c3c(c(O)c1C2=O)CC(O)(C(=O)CO)CC3OC1CC(N)C(O)C(C)O1` (configuration not stated) + Cc1cnc(CNC(=O)c2c(=O)c3ccc(N4CCCN(C)CC4)nc3n3c2sc2ccccc23)cn1, the viability, T/C was 0.34%.

Take `Nc1ccn(C2OC(CO)C(O)C2(F)F)c(=O)n1` (configuration not stated) + Cc1cnc(CNC(=O)c2c(=O)c3ccc(N4CCCN(C)CC4)nc3n3c2sc2ccccc23)cn1: the viability, T/C was 5.09%.

For the compound `COc1cc(C2c3cc4c(cc3C(OC3OC5COC(C)OC5C(O)C3O)C3COC(=O)C23)OCO4)cc(OC)c1O` (configuration not stated) + CN(C)c1ccc(Nc2c3ccc(NC(=O)CCN4CCCC4)cc3nc3cc(NC(=O)CCN4CCCC4)ccc23)cc1, the viability, T/C is 5.05%.

Still in this experiment, the particulars now being: second compound 10 µM; first compound 10 µM; stronger effect = lower value.
Take `CC1COCCN1c1cc(C2(O)CC3CCC(C2)O3)c2cnn(-c3ccn[nH]3)c2n1` (configuration not stated) + CN(C)c1ccc(Nc2c3ccc(NC(=O)CCN4CCCC4)cc3nc3cc(NC(=O)CCN4CCCC4)ccc23)cc1: the viability, T/C was 0.34%.

Regarding `COc1cccc2c1C(=O)c1c(O)c3c(c(O)c1C2=O)CC(O)(C(=O)CO)CC3OC1CC(N)C(O)C(C)O1` (configuration not stated) + Cc1cnc(CNC(=O)c2c(=O)c3ccc(N4CCCN(C)CC4)nc3n3c2sc2ccccc23)cn1, the viability, T/C is 0.34%.

As to `Nc1ccn(C2OC(CO)C(O)C2(F)F)c(=O)n1` (configuration not stated) + Cc1cnc(CNC(=O)c2c(=O)c3ccc(N4CCCN(C)CC4)nc3n3c2sc2ccccc23)cn1, the viability, T/C is 8.27%.

As for `COc1cc(C2c3cc4c(cc3C(OC3OC5COC(C)OC5C(O)C3O)C3COC(=O)C23)OCO4)cc(OC)c1O` (configuration not stated) + CN(C)c1ccc(Nc2c3ccc(NC(=O)CCN4CCCC4)cc3nc3cc(NC(=O)CCN4CCCC4)ccc23)cc1, the viability, T/C is 0.99%.
